According to patent publication US9227971B2, “Pyrazolo[1,5-a]pyrimidine compounds as mTOR inhibitors” (Merck Sharp & Dohme Corp., priority 2010, dated 2016):
Read-outs that look alike come from different tables or passages of the source.

Key:
[1] = test system: phosphorylated AKT Ser473 (pAKT S473), mTORC2 activity, PC3 cells; assay: mTOR target engagement assay, immunofluorescent cell-based, pAKT S473 readout (mTORC2 activity); conditions: Homo sapiens
In short: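 After blocking, cells were stained overnight at 4 °C with anti-pAKT S473 antibody, then a fluorescent secondary; inhibition was read as reduced fluorescence intensity.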

[2] = test system: phosphorylated 4E-BP1 Thr37/46 (p4E-BP1 Thr37/46), mTORC1 activity, PC3 cells; assay: mTOR target engagement assay, immunofluorescent cell-based, p4E-BP1 Thr37/46 readout (mTORC1 activity); conditions: Homo sapiens, read-out: p4E-BP1 Thr37/46 IC50
In short: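 Seed PC3 cells overnight; treat with compound dilutions for ninety minutes at 37° C; fix with glyoxal and block; stain with anti-p4E-BP1 Thr37/46 overnight at 4° C, then fluorescent secondary; read fluorescence and fit IC50 against DMSO-only controls.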

[3] = PC-3, PC3 cells, compound treatment ninety minutes at 37° C.

SMILES | IC50 ([1]; PC-3, Table 3-1, PC3 cells) | IC50 ([2]; PC-3, Table 3-1, PC3 cells) | IC50 [1, 3] | IC50 [2, 3]
CC(=O)NCC(=O)N1[C@@H]2CC[C@H]1C[C@H](c1nc3c(-c4ccc(-c5ccccc5)nc4)cnn3c(N)c1S(C)(=O)=O)C2 [Compound 3.203, N-(2-((1R,3s,5S)-3-(7-amino-6-(methylsulfonyl)-3-(6-phenylpyridin-3-yl)pyrazolo[1,5-a]pyrimidin-5-yl)-8-azabicyclo[3.2.1]octan-8-yl)-2-oxoethyl)acetamide] | 1 to 100 nM | 1 to 100 nM | – | –
CS(=O)(=O)c1c([C@@H]2C[C@H]3CC[C@@H](C2)N3C(=O)[C@H]2CCCN2)nc2c(-c3ccc(-c4ccccc4)nc3)cnn2c1N [Compound 3.205] | 100 to 1000 nM | 100 to 1000 nM | – | –
CS(=O)(=O)c1c([C@@H]2C[C@H]3CC[C@@H](C2)N3C(=O)[C@@H]2CCCN2)nc2c(-c3ccc(-c4ccccc4)nc3)cnn2c1N [Compound 3.206, ((1R,3R,5S)-3-(7-amino-6-(methylsulfonyl)-3-(6-phenylpyridin-3-yl)pyrazolo[1,5-a]pyrimidin-5-yl)-8-azabicyclo[3.2.1]octan-8-yl)((S)-pyrrolidin-2-yl)methanone] | 1000 to 10000 nM | 1000 to 10000 nM | – | –
Nc1c(C2CC2)c([C@@H]2C[C@H]3CC[C@@H](C2)N3C(=O)c2nnc[nH]2)nc2c(-c3ccc(-c4ccccc4)nc3)cnn12 [Compound 4.1, ((1R,3a,5S)-3-(7-amino-6-cyclopropyl-3-(6-phenylpyridin-3-yl)pyrazolo[1,5-a]pyrimidin-5-yl)-8-azabicyclo[3.2.1]octan-8-yl)(4H-1,2,4-triazol-3-yl)methanone] | – | – | 1 to 100 nM | 1 to 100 nM
Cc1nnc(C(=O)N2[C@@H]3CC[C@H]2C[C@H](c2nc4c(-c5ccc(-c6ccccc6)nc5)cnn4c(N)c2C2CC2)C3)[nH]1 [Compound 4.2, ((1R,3a,5S)-3-(7-amino-6-cyclopropyl-3-(6-phenylpyridin-3-yl)pyrazolo[1,5-a]pyrimidin-5-yl)-8-azabicyclo[3.2.1]octan-8-yl)(5-methyl-4H-1,2,4-triazol-3-yl)methanone] | – | – | 1 to 100 nM | 1 to 100 nM
Nc1c(C2CC2)c([C@@H]2C[C@H]3CC[C@@H](C2)N3S(=O)(=O)c2nnc[nH]2)nc2c(-c3ccc(-c4ccccc4)nc3)cnn12 [Compound 4.3, 5-((1R,3a,5S)-8-(4H-1,2,4-triazol-3-ylsulfonyl)-8-azabicyclo[3.2.1]octan-3-yl)-6-cyclopropyl-3-(6-phenylpyridin-3-yl)pyrazolo[1,5-a]pyrimidin-7-amine] | – | – | 1000 to 10000 nM | 1000 to 10000 nM
CNC(=O)N1[C@@H]2CC[C@H]1C[C@H](c1nc3c(-c4ccc(-c5ccccc5)nc4)cnn3c(N)c1C1CC1)C2 [Compound 4.4, (1R,3a,5S)-3-(7-amino-6-cyclopropyl-3-(6-phenylpyridin-3-yl)pyrazolo[1,5-a]pyrimidin-5-yl)-N-methyl-8-azabicyclo[3.2.1]octane-8-carboxamide] | – | – | 1 to 100 nM | 100 to 1000 nM
CCNC(=O)N1[C@@H]2CC[C@H]1C[C@H](c1nc3c(-c4ccc(-c5ccccc5)nc4)cnn3c(N)c1C1CC1)C2 [Compound 4.5, (1R,3s,5S)-3-(7-amino-6-cyclopropyl-3-(6-phenylpyridin-3-yl)pyrazolo[1,5-a]pyrimidin-5-yl)-N-ethyl-8-azabicyclo[3.2.1]octane-8-carboxamide] | – | – | 100 to 1000 nM | 100 to 1000 nM
NC(=O)N1[C@@H]2CC[C@H]1C[C@H](c1nc3c(-c4ccc(-c5ccccc5)nc4)cnn3c(N)c1C1CC1)C2 [Compound 4.6, (1R,3s,5S)-3-(7-amino-6-cyclopropyl-3-(6-phenylpyridin-3-yl)pyrazolo[1,5a]pyrimidin-5-yl)-8-azabicyclo[3.2.1]octane-8-carboxamide] | – | – | 1 to 100 nM | 1 to 100 nM
COCCNC(=O)N1[C@@H]2CC[C@H]1C[C@H](c1nc3c(-c4ccc(-c5ccccc5)nc4)cnn3c(N)c1C1CC1)C2 [Compound 4.7, (1R,3s,5S)-3-(7-amino-6-cyclopropyl-3-(6-phenylpyridin-3-yl)pyrazolo[1,5-a]pyrimidin-5-yl)-N-(2-methoxyethyl)-8-azabicyclo[3.2.1]octane-8-carboxamide] | – | – | 100 to 1000 nM | 100 to 1000 nM
Nc1c(C2CC2)c([C@@H]2C[C@H]3CC[C@@H](C2)N3C(=O)NCCO)nc2c(-c3ccc(-c4ccccc4)nc3)cnn12 [Compound 4.8, (1R,3s,5S)-3-(7-amino-6-cyclopropyl-3-(6-phenylpyridin-3-yl)pyrazolo[1,5-a]pyrimidin-5-yl)-N-(2-hydroxyethyl)-8-azabicyclo[3.2.1]octane-8-carboxamide] | – | – | 1 to 100 nM | 100 to 1000 nM
COc1ccc(-c2ccc(-c3cnn4c(N)c(C5CC5)c([C@@H]5C[C@H]6CC[C@@H](C5)N6C(=O)c5nnc[nH]5)nc34)cn2)cc1F [Compound 4.9, ((1R,3s,5S)-3-(7-amino-6-cyclopropyl-3-(6-(3-fluoro-4-methoxyphenyl)pyridin-3-yl)pyrazolo[1,5-a]pyrimidin-5-yl)-8-azabicyclo[3.2.1]octan-8-yl)(4H-1,2,4-triazol-3-yl)methanone] | – | – | 1 to 100 nM | 100 to 1000 nM
COc1ccc(-c2ccc(-c3cnn4c(N)c(C5CC5)c([C@@H]5C[C@H]6CC[C@@H](C5)N6C(=O)c5nnc[nH]5)nc34)cn2)c(F)c1F [Compound 4.10, ((1R,3a,5S)-3-(7-amino-6-cyclopropyl-3-(6-(2,3-difluoro-4-methoxyphenyl)pyridin-3-yl)pyrazolo[1,5-a]pyrimidin-5-yl)-8-azabicyclo[3.2.1]octan-8-yl)(4H-1,2,4-triazol-3-yl)methanone] | – | – | 1 to 100 nM | 1 to 100 nM
COc1cc(F)c(-c2ccc(-c3cnn4c(N)c(C5CC5)c([C@@H]5C[C@H]6CC[C@@H](C5)N6C(=O)c5nnc[nH]5)nc34)cn2)cc1F [Compound 4.12, ((1R,3a,5S)-3-(7-amino-6-cyclopropyl-3-(6-(2,5-difluoro-4-methoxyphenyl)pyridin-3-yl)pyrazolo[1,5-a]pyrimidin-5-yl)-8-azabicyclo[3.2.1]octan-8-yl)(4H-1,2,4-triazol-3-yl)methanone] | – | – | 1 to 100 nM | 1 to 100 nM
CCOc1ccc(-c2ccc(-c3cnn4c(N)c(C5CC5)c([C@@H]5C[C@H]6CC[C@@H](C5)N6C(=O)c5nnc[nH]5)nc34)cn2)cc1 [Compound 4.13, ((1R,3s,5S)-3-(7-amino-6-cyclopropyl-3-(6-(4-ethoxyphenyl)pyridin-3-yl)pyrazolo[1,5-a]pyrimidin-5-yl)-8-azabicyclo[3.2.1]octan-8-yl)(4H-1,2,4-triazol-3-yl)methanone] | – | – | 100 to 1000 nM | 100 to 1000 nM
COCCOc1ccc(-c2ccc(-c3cnn4c(N)c(C5CC5)c([C@@H]5C[C@H]6CC[C@@H](C5)N6C(=O)c5nnc[nH]5)nc34)cn2)cc1 [Compound 4.14, ((1R,3s,5S)-3-(7-amino-6-cyclopropyl-3-(6-(4-(2-methoxyethoxy)phenyl)pyridin-3-yl)pyrazolo[1,5-a]pyrimidin-5-yl)-8-azabicyclo[3.2.1]octan-8-yl)(4H-1,2,4-triazol-3-yl)methanone] | – | – | 100 to 1000 nM | 100 to 1000 nM
Nc1c(C2CC2)c([C@@H]2C[C@H]3CC[C@@H](C2)N3C(=O)c2nnc[nH]2)nc2c(-c3ccc(-c4ccc(OC(F)F)cc4)nc3)cnn12 [Compound 4.15, ((1R,3s,5S)-3-(7-amino-6-cyclopropyl-3-(6-(4-(difluoromethoxy)phenyl)pyridin-3-yl)pyrazolo[1,5-a]pyrimidin-5-yl)-8-azabicyclo[3.2.1]octan-8-yl)(4H-1,2,4-triazol-3-yl)methanone] | – | – | 100 to 1000 nM | 100 to 1000 nM
